Results reported in PubChem BioAssay AID687005 (Broad Institute, 2013).
Inconclusive results are not listed. Active and inactive are the calls of the source.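 How the source made its calls: active means Compounds that reduce signal, with fitted half-maximal dose at or under twice the top valid tested dose; inconclusive means Poor fit, or flat curve losing 30 to 70% of signal; inactive means Potency past limit, flat within 30%, or opposite direction.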

experiment: HEK293T cell cytotoxicity, dose response, cytotoxicity control, ATP luminescence, cherry-pick samples (AID 687005); settings: HEK293T viability, ATP luminescence (CellTiter-Glo), 48 h; at 21 µM (top of the series)

| SMILES | activity change, negative = cytotoxicity |
| --- | --- |
| C[C@@H]1CN([C@H](C)CO)C(=O)Cc2cc(NC(=O)CCCCCC(=O)Nc3ccccc3N)ccc2O[C@H]1CN(C)Cc1ccc2c(c1)OCO2 | -2.18% (inactive) |

same assay, conditions: HEK293T viability, ATP luminescence (CellTiter-Glo), 48 h; at 23.5 µM (top of the series)

| SMILES | activity change, negative = cytotoxicity |
| --- | --- |
| CO[C@@H]1CN(C)C(=O)c2cc(NC(=O)C3CCOCC3)ccc2OC[C@H](C)NC[C@@H]1C | -2.94% (inactive) |
| COCC(=O)N1C[C@H](C)[C@@H](OC)CN(C)C(=O)c2ccc(NS(C)(=O)=O)cc2OC[C@@H]1C | 17.4% (inactive) |
| C[C@H]1CN([C@@H](C)CO)C(=O)Cc2cc(NC(=O)C3CC3)ccc2O[C@H]1CN(C)Cc1ccc(-c2ccccc2)cc1 | -24.1% (inactive) |
| C[C@@H]1CN([C@@H](C)CO)C(=O)CCCn2cc(nn2)CO[C@@H]1CN(C)Cc1ccc2c(c1)OCO2 | -1.87% (inactive) |
| Cc1noc(C)c1S(=O)(=O)Nc1ccc2c(c1)CC(=O)N([C@H](C)CO)C[C@H](C)[C@H](CN(C)S(=O)(=O)c1cccs1)O2 | -4.72% (inactive) |
| COc1cccc(C#Cc2cnc3c(c2)C(=O)N([C@H](C)CO)C[C@@H](C)[C@@H](CN(C)C(=O)C2CCOCC2)O3)c1 | 6.67% (inactive) |
| CC(C)NC(=O)Nc1ccc2c(c1)CC(=O)N([C@H](C)CO)C[C@H](C)[C@H](CN(C)S(=O)(=O)c1ccc(Cl)cc1)O2 | 39.4% (inactive) |

same assay, conditions: HEK293T viability, ATP luminescence (CellTiter-Glo), 48 h; at 26 µM (top of the series)

| SMILES | activity change, negative = cytotoxicity |
| --- | --- |
| COCC(=O)Nc1ccc2c(c1)C(=O)N(C)C[C@H](OC)[C@@H](C)CN(C(=O)c1ccccc1)[C@@H](C)CO2 | 13.6% (inactive) |
| CNC[C@@H]1OCCCC[C@H](C)Oc2ccc(NC(=O)Nc3ccc(F)cc3)cc2C(=O)N([C@@H](C)CO)C[C@H]1C | 28.7% (inactive) |
| COc1ccccc1C(=O)Nc1ccc2c(c1)OC[C@H](C)N(C(C)=O)C[C@H](C)[C@H](OC)CN(C)C2=O | -41.7% (inactive) |
| C[C@H]1CCCCO[C@@H](CN(C)C(=O)c2ccccc2)[C@@H](C)CN([C@@H](C)CO)C(=O)c2cc(NC(=O)c3ccncc3)ccc2O1 | -3.03% (inactive) |
| C[C@H]1CN([C@@H](C)CO)C(=O)c2ccccc2-c2ccccc2CO[C@H]1CN(C)S(=O)(=O)c1cccc(C#N)c1 | -8.25% (inactive) |
| O=C(NCCc1ccccc1)[C@@H]1[C@@H](CO)[C@@H]2Cn3c(cccc3=O)[C@H]1N2C(=O)C1CCC1 | 8.28% (inactive) |
| CCNC(=O)COc1cccc(C(=O)NCc2ccccc2)c1 | -54% (inactive) |
| COc1cccc(CNC(=O)COc2ccc(C(=O)c3ccccc3)cc2)c1 | 10% (inactive) |
| C[C@@H]1CN([C@H](C)CO)C(=O)c2cc(C#CC(C)(C)O)cnc2O[C@@H]1CN(C)Cc1cncnc1 | 35.1% (inactive) |
| CO[C@H]1CN(C)C(=O)c2cc(NS(=O)(=O)c3ccc(C)cc3)ccc2OC[C@H](C)N(C)C[C@H]1C | 13.7% (inactive) |
| Cc1noc(C)c1NC(=O)Nc1cccc2c1O[C@@H](CN(C)S(=O)(=O)c1cn(C)cn1)[C@@H](C)CN([C@@H](C)CO)C2=O | -3.21% (inactive) |
| C[C@@H]1CN([C@@H](C)CO)C(=O)c2cc(NC(=O)C3CCCCC3)ccc2O[C@@H](C)CCCCO[C@@H]1CN(C)C(=O)NC1CCCCC1 | 8.91% (inactive) |
| O=C(Cc1ccccc1)N[C@H]1C=C[C@@H](CC(=O)N2CCOCC2)O[C@@H]1CO | -14.2% (inactive) |
| Cc1cccc(NC(=O)CN(C)C(=O)C2CCCC2)c1C | -33.5% (inactive) |
| CCNC(=O)CN(c1ccccc1)S(=O)(=O)c1ccc(Cl)cc1 | -16.3% (inactive) |
| C[C@H](NC(=O)C[C@H]1CC[C@@H](NC(=O)Cc2ccccn2)[C@@H](CO)O1)c1ccccc1 | 25.6% (inactive) |
| CCCNC(=O)N1[C@H](CO)[C@@H](c2ccc(C3=CCCC3)cc2)[C@@H]1CN(C)C(C)=O | 37.6% (inactive) |
| CO[C@@H]1CC[C@@H]2CCOc3c(C#N)cccc3C(=O)N(C)C[C@H](c3ccccc3)CC(=O)N(C)C[C@@H]1O2 | -28.5% (inactive) |
| C[C@H](CO)N1C[C@H](C)[C@H](CN(C)C(=O)c2ccccn2)Oc2ncc(-c3ccccc3)cc2C1=O | -0.807% (inactive) |
| COc1ccccc1C(=O)N1C[C@H]2[C@@H](c3ccccc31)[C@@H](CO)N2C(=O)Cc1ccccc1 | -6.87% (inactive) |
| Cc1noc(C)c1NC(=O)N(C)C[C@@H]1Oc2ccc(NC(=O)C3CC3)cc2CC(=O)N([C@H](C)CO)C[C@@H]1C | 30.7% (inactive) |
| O=C(CN(c1ccc(F)cc1)S(=O)(=O)c1ccccc1)N1CCOCC1 | -20% (inactive) |
| CC(C)NC(=O)N(C)C[C@@H]1OCCCC[C@H](C)Oc2ccc(NC(=O)c3ccccc3)cc2C(=O)N([C@H](C)CO)C[C@H]1C | -12.5% (inactive) |
| CC(C)c1ccc(S(=O)(=O)N2CCN(CC(=O)Nc3ccc4c(c3)OCO4)CC2)cc1 | -0.379% (inactive) |
| O=C(C[C@@H]1CC[C@H]2[C@@H](COC[C@H](O)CN2Cc2ccccc2F)O1)NC1CCC1 | -8.5% (inactive) |
| Cc1cc(C)c(NC(=O)C2CCCN2C)c(C)c1 (stereo not given) | 10.5% (inactive) |
| COc1ccc(NC(=O)Nc2ccc3c(c2)C(=O)N([C@@H](C)CO)C[C@@H](C)[C@H](CN(C)C(=O)Cc2ccccc2)OCCCC[C@H](C)O3)cc1 | -2.88% (inactive) |
| CO[C@@H](CN(C)Cc1ccc2c(c1)OCO2)[C@@H](C)CN(C(=O)c1ccccc1)[C@H](C)CO | 29.3% (inactive) |

| SMILES | activity change, negative = cytotoxicity |
| --- | --- |
| CCCNC(=O)[C@H]1[C@H](CO)[C@H]2Cn3c(cccc3=O)[C@@H]1N2C(=O)Nc1cc(F)ccc1F | 42.5% (inactive) |
| O=C([C@@H]1[C@@H](CO)[C@@H]2Cn3c(cccc3=O)[C@@H]2N1CCC(F)(F)F)N1CCCCC1 | 1.78% (inactive) |
| CCC(=O)N1[C@H](CO)[C@H](c2ccccc2)[C@@H]1CN(CC)C(=O)c1cccc(F)c1 | 25% (inactive) |
| Cc1noc(C)c1S(=O)(=O)Nc1ccc2c(c1)C(=O)N([C@@H](C)CO)C[C@H](C)[C@@H](CN(C)Cc1ccc3c(c1)OCO3)OCCCC[C@@H](C)O2 | 45.4% (inactive) |
| CC(=O)c1ccc(OCC(=O)NCc2ccc(F)cc2)cc1 | 11% (inactive) |
| C[C@@H]1CN([C@@H](C)CO)C(=O)CCCn2nncc2CO[C@H]1CN(C)Cc1cccc(C(F)(F)F)c1 | -26.6% (inactive) |
| COC(=O)C1=C(C)N(Cc2ccc(Cl)cc2)C(=S)NC1c1cccc(OC)c1 (stereo not given) | -34.3% (inactive) |
| C[C@@H]1CN([C@@H](C)CO)C(=O)Cc2cc(NC(=O)Nc3cccc4ccccc34)ccc2O[C@@H]1CN(C)S(=O)(=O)c1cccs1 | 153% (inactive) |
| C[C@@H]1CN([C@@H](C)CO)C(=O)c2cc(NS(=O)(=O)c3cn(C)cn3)ccc2O[C@@H]1CN(C)C(=O)Nc1cccc2ccccc12 | -15.2% (inactive) |
| O=C(NCCc1ccccc1)[C@H]1[C@H](CO)[C@H]2Cn3c(cccc3=O)[C@@H]1N2C(=O)C1CCC1 | 7.71% (inactive) |
| C[C@H](O)C#Cc1cnc2c(c1)C(=O)N([C@@H](C)CO)C[C@@H](C)[C@@H](CN(C)C(=O)Cc1ccncc1)O2 | 0.451% (inactive) |
| C[C@@H]1CN([C@H](C)CO)C(=O)Cc2cc(NC(=O)CCCCCC(=O)Nc3ccccc3N)ccc2O[C@H]1CN(C)C(=O)Nc1ccccc1 | 0.594% (inactive) |
| CC(C)CC#Cc1ccc2c(c1)O[C@@H](CN(C)C(=O)C1CCC1)[C@@H](C)CN([C@H](C)CO)S2(=O)=O | 1.96% (inactive) |
| CCC(C)(C(=O)NC1CCCCC1)N(C(=O)C1CCC(=O)N1)c1ccccc1 (stereo not given) | 0.147% (inactive) |
| CCOC(=O)NC(=S)Nc1ccc(C(C)(C)C)cc1 | -11.3% (inactive) |
| Cc1cccc(C)c1NC(=O)CN(C)C(=O)C1CCCCC1 | -11.8% (inactive) |
| CC(C)NC(=O)N[C@H]1CC[C@@H](CCNC(=O)C2CC2)O[C@H]1CO | 6.21% (inactive) |
| CC(C)NC(=O)N(C)C[C@H]1OCCCC[C@@H](C)Oc2ccc(NC(=O)c3ccccc3)cc2C(=O)N([C@@H](C)CO)C[C@@H]1C | -10.9% (inactive) |
| C[C@@H]1CN([C@H](C)CO)C(=O)c2cc(N(C)C)ccc2O[C@@H]1CN(C)C(=O)Nc1ccc(C(F)(F)F)cc1 | -77.2% (inactive) |
| CN(C[C@H]1N[C@@H](CO)[C@H]1c1ccc(-c2cccc(F)c2)cc1)S(C)(=O)=O | 61.6% (inactive) |
| Cc1ccccc1OCC(=O)NCc1ccccc1 | 2.49% (inactive) |
| COCC(=O)NC[C@H]1N[C@H](CO)[C@H]1c1ccc(C2=CCCC2)cc1 | -13.3% (inactive) |
| Cc1cc(C(=O)NC(=S)Nc2ccccc2N2CCOCC2)ccc1[N+](=O)[O-] | -23.2% (inactive) |
| CCCCN1C(=S)NC[C@@H]1Cc1ccccc1 | 6.24% (inactive) |
| CO[C@@H]1CN(C)C(=O)c2ccc(NS(=O)(=O)c3ccc(Oc4ccccc4)cc3)cc2OC[C@H](C)NC[C@H]1C | -26.5% (inactive) |
| COCCNC(=O)C[C@H]1C=C[C@H](NS(=O)(=O)c2ccc(C)cc2)[C@@H](CO)O1 | -8.29% (inactive) |
| O=C(NC(=S)Nc1ccc(CN2CCOCC2)cc1)c1ccc([N+](=O)[O-])cc1 | -19.4% (inactive) |

same assay, conditions: HEK293T viability, ATP luminescence (CellTiter-Glo), 48 h; at 28.5 µM (top of the series)

| SMILES | activity change, negative = cytotoxicity |
| --- | --- |
| C[C@@H]1CN([C@@H](C)CO)C(=O)CCCn2cc(nn2)CO[C@@H]1CN(C)C(=O)CCCN(C)C | 6.9% (inactive) |

same assay, conditions: HEK293T viability, ATP luminescence (CellTiter-Glo), 48 h; at 42 µM (top of the series)

| SMILES | activity change, negative = cytotoxicity |
| --- | --- |
| CCCC(=O)N1CCCC1(C)C(=O)Nc1ccc(C)c(C)c1 (stereo not given) | -11.7% (inactive) |
